In brackets after ≈: the same amount, converted by molar mass.
What was measured:
Assay in all cases: In vitro antibacterial evaluation: minimum inhibitory concentration (MIC), broth dilution method
Type in all cases: cell-based
Enterococcus sp. = conditions: for MIC Enterococcus faecalis (GC 2242) / MIC Enterococcus faecalis (GC 4552): 18 hours at 35° C.
How it was run: (§1)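 Using Muller-Hinton II […] and an inoculum of 5×10^5 CFU/mL, antibiotic dilutions from 64 down to 0.06 μg/mL were tested following NCCLS M7-A2. The MIC is the lowest concentration inhibiting growth, including in methicillin-, penicillin- or vancomycin-resistant clinical isolates.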

Streptococcus sp. = conditions: 18 hours at 35° C.
How it was run: as §1

Escherichia coli [1] = system: Escherichia coli
How it was run: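 An MIC is reported for each organism as the least concentration giving inhibition, using broth dilution over 64-0.06 μg/mL with a 5×10^5 CFU/mL inoculum.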

Staphylococcus sp. = conditions: 18 hours at 35° C.
How it was run: as §1

Escherichia coli [2] = system: Escherichia coli; remark: listed apart in the source

MIC Enterococcus avium (GC 4558) (Enterococcus sp.)	MIC Enterococcus faecalis (ATCC 29212) (Enterococcus sp.)	MIC Enterococcus faecalis (GC 2242) (Enterococcus sp.)	MIC Enterococcus faecalis (GC 4552) (Enterococcus sp.)	MIC Enterococcus faecalis (GC 4553) (Enterococcus sp.)	MIC Enterococcus faecalis (GC 4554) (Enterococcus sp.)	MIC Enterococcus faecium (GC 2243) (Enterococcus sp.)	MIC Enterococcus faecium (GC 4556) (Enterococcus sp.)	MIC Enterococcus faecium (GC 4557) (Enterococcus sp.)	MIC Streptococcus agalactiae (GC 4564) (Streptococcus sp.)	MIC Streptococcus pyogenes (ID-3187) (Streptococcus sp.)	MIC Escherichia coli (GC 4559) (Escherichia coli [1])	MIC Escherichia coli (GC 4560) (Escherichia coli [1])	MIC Coagulase Negative Staphylococcus (GC 4547) (Staphylococcus sp.)	MIC Coagulase Negative Staphylococcus (GC 4547) (Staphylococcus sp.; broth dilution)	MIC Coagulase Negative Staphylococcus (GC 4548) (Staphylococcus sp.)	MIC Coagulase Negative Staphylococcus (GC 4548) (Staphylococcus sp.; broth dilution)	MIC Coagulase Negative Staphylococcus (GC 4549) (Staphylococcus sp.)	MIC Coagulase Negative Staphylococcus (GC 4549) (Staphylococcus sp.; broth dilution)	MIC Coagulase Negative Staphylococcus (GC 4551) (Staphylococcus sp.)	Structure (SMILES)	also measured
16 mg/L (≈ 11.3 µM)	32 mg/L (≈ 22.6 µM)	16 mg/L (≈ 11.3 µM)	32 mg/L (≈ 22.6 µM)	32 mg/L (≈ 22.6 µM)	32 mg/L (≈ 22.6 µM)	16 mg/L (≈ 11.3 µM)	16 mg/L (≈ 11.3 µM)	2 mg/L (≈ 1.41 µM)	1 mg/L (≈ 0.707 µM)	1 mg/L (≈ 0.707 µM)	>64 mg/L	1 mg/L (≈ 0.707 µM)	2 mg/L (≈ 1.41 µM)	2 mg/L (≈ 1.41 µM)	1 mg/L (≈ 0.707 µM)	1 mg/L (≈ 0.707 µM)	1 mg/L (≈ 0.707 µM)	1 mg/L (≈ 0.707 µM)	2 mg/L (≈ 1.41 µM)	CC(C)CC(=O)OC1C(O)C(CO)OC(OC2C(CO)OC(Oc3ccc(CC4NC(=O)C(C(C)c5ccc(Cl)cc5)NC(=O)CNC(=O)C(CO)NC(=O)C(C(O)C5CNC(=N)N5C5OC(CO)C(O)C(O)C5O)NC(=O)C(C(O)C5CNC(=N)N5)NC4=O)cc3)C(O)C2O)C1O (stereo not drawn) [Example 262b]	MIC Coagulase Negative Staphylococcus (GC 4551) (Staphylococcus sp.; broth dilution): 2 mg/L (≈ 1.41 µM); MIC Staphylococcus aureus (ATCC 29213) (Staphylococcus sp.): 4 mg/L (≈ 2.83 µM); MIC Staphylococcus aureus (ATCC 29213) (Staphylococcus sp.; broth dilution): 4 mg/L (≈ 2.83 µM); MIC Staphylococcus aureus (GC 1131) (Staphylococcus sp.): 4 mg/L (≈ 2.83 µM); MIC Staphylococcus aureus (GC 1131) (Staphylococcus sp.; broth dilution): 4 mg/L (≈ 2.83 µM); MIC Staphylococcus aureus (GC 4541) (Staphylococcus sp.): 2 mg/L (≈ 1.41 µM); MIC Staphylococcus aureus (GC 4541) (Staphylococcus sp.; broth dilution): 2 mg/L (≈ 1.41 µM); MIC Staphylococcus aureus (GC 4542) (Staphylococcus sp.): 2 mg/L (≈ 1.41 µM); MIC Staphylococcus aureus (GC 4542) (Staphylococcus sp.; broth dilution): 2 mg/L (≈ 1.41 µM); MIC Staphylococcus aureus (GC 4544) (Staphylococcus sp.): 4 mg/L (≈ 2.83 µM); MIC Staphylococcus aureus (GC 4544) (Staphylococcus sp.; broth dilution): 4 mg/L (≈ 2.83 µM); MIC Staphylococcus aureus (GC 4545) (Staphylococcus sp.): 2 mg/L (≈ 1.41 µM); MIC Staphylococcus aureus (GC 4545) (Staphylococcus sp.; broth dilution): 2 mg/L (≈ 1.41 µM); MIC Staphylococcus aureus-SMITH (GC 4543) (Staphylococcus sp.): 1 mg/L (≈ 0.707 µM); MIC Staphylococcus aureus-SMITH (GC 4543) (Staphylococcus sp.; broth dilution): 1 mg/L (≈ 0.707 µM); MIC Staphylococcus haemolyticus (GC 4546) (Staphylococcus sp.): 2 mg/L (≈ 1.41 µM); MIC Staphylococcus haemolyticus (GC 4546) (Staphylococcus sp.; broth dilution): 2 mg/L (≈ 1.41 µM); MIC Escherichia coli (ATCC 25922) (Escherichia coli [2]): >64 mg/L
>64 mg/L	64 mg/L (≈ 45.8 µM)	64 mg/L (≈ 45.8 µM)	>64 mg/L	>64 mg/L	>64 mg/L	>64 mg/L	64 mg/L (≈ 45.8 µM)	32 mg/L (≈ 22.9 µM)	8 mg/L (≈ 5.72 µM)	4 mg/L (≈ 2.86 µM)	>64 mg/L	4 mg/L (≈ 2.86 µM)	8 mg/L (≈ 5.72 µM)	8 mg/L (≈ 5.72 µM)	4 mg/L (≈ 2.86 µM)	4 mg/L (≈ 2.86 µM)	4 mg/L (≈ 2.86 µM)	4 mg/L (≈ 2.86 µM)	16 mg/L (≈ 11.4 µM)	CC(C)CC(=O)OC1C(OC2C(CO)OC(Oc3ccc(CC4NC(=O)C(C(C)c5cccc(F)c5)NC(=O)CNC(=O)C(CO)NC(=O)C(C(O)C5CNC(=N)N5C5OC(CO)C(O)C(O)C5O)NC(=O)C(C(O)C5CNC(=N)N5)NC4=O)cc3)C(O)C2O)OC(CO)C(O)C1O (stereo not drawn) [Example 264a]	MIC Coagulase Negative Staphylococcus (GC 4551) (Staphylococcus sp.; broth dilution): 16 mg/L (≈ 11.4 µM); MIC Staphylococcus aureus (ATCC 29213) (Staphylococcus sp.): 16 mg/L (≈ 11.4 µM); MIC Staphylococcus aureus (ATCC 29213) (Staphylococcus sp.; broth dilution): 16 mg/L (≈ 11.4 µM); MIC Staphylococcus aureus (GC 1131) (Staphylococcus sp.): 16 mg/L (≈ 11.4 µM); MIC Staphylococcus aureus (GC 1131) (Staphylococcus sp.; broth dilution): 16 mg/L (≈ 11.4 µM); MIC Staphylococcus aureus (GC 4541) (Staphylococcus sp.): 16 mg/L (≈ 11.4 µM); MIC Staphylococcus aureus (GC 4541) (Staphylococcus sp.; broth dilution): 16 mg/L (≈ 11.4 µM); MIC Staphylococcus aureus (GC 4542) (Staphylococcus sp.): 16 mg/L (≈ 11.4 µM); MIC Staphylococcus aureus (GC 4542) (Staphylococcus sp.; broth dilution): 16 mg/L (≈ 11.4 µM); MIC Staphylococcus aureus (GC 4544) (Staphylococcus sp.): 8 mg/L (≈ 5.72 µM); MIC Staphylococcus aureus (GC 4544) (Staphylococcus sp.; broth dilution): 8 mg/L (≈ 5.72 µM); MIC Staphylococcus aureus (GC 4545) (Staphylococcus sp.): 8 mg/L (≈ 5.72 µM); MIC Staphylococcus aureus (GC 4545) (Staphylococcus sp.; broth dilution): 8 mg/L (≈ 5.72 µM); MIC Staphylococcus aureus-SMITH (GC 4543) (Staphylococcus sp.): 8 mg/L (≈ 5.72 µM); MIC Staphylococcus aureus-SMITH (GC 4543) (Staphylococcus sp.; broth dilution): 8 mg/L (≈ 5.72 µM); MIC Staphylococcus haemolyticus (GC 4546) (Staphylococcus sp.): 8 mg/L (≈ 5.72 µM); MIC Staphylococcus haemolyticus (GC 4546) (Staphylococcus sp.; broth dilution): 8 mg/L (≈ 5.72 µM); MIC Escherichia coli (ATCC 25922) (Escherichia coli [2]): 64 mg/L (≈ 45.8 µM)
64 mg/L (≈ 45.8 µM)	64 mg/L (≈ 45.8 µM)	32 mg/L (≈ 22.9 µM)	64 mg/L (≈ 45.8 µM)	64 mg/L (≈ 45.8 µM)	64 mg/L (≈ 45.8 µM)	64 mg/L (≈ 45.8 µM)	64 mg/L (≈ 45.8 µM)	8 mg/L (≈ 5.72 µM)	4 mg/L (≈ 2.86 µM)	4 mg/L (≈ 2.86 µM)	>64 mg/L	4 mg/L (≈ 2.86 µM)	4 mg/L (≈ 2.86 µM)	4 mg/L (≈ 2.86 µM)	4 mg/L (≈ 2.86 µM)	4 mg/L (≈ 2.86 µM)	4 mg/L (≈ 2.86 µM)	4 mg/L (≈ 2.86 µM)	8 mg/L (≈ 5.72 µM)	CC(C)CC(=O)OC1C(O)C(CO)OC(OC2C(CO)OC(Oc3ccc(CC4NC(=O)C(C(C)c5cccc(F)c5)NC(=O)CNC(=O)C(CO)NC(=O)C(C(O)C5CNC(=N)N5C5OC(CO)C(O)C(O)C5O)NC(=O)C(C(O)C5CNC(=N)N5)NC4=O)cc3)C(O)C2O)C1O (stereo not drawn) [Example 264b]	MIC Coagulase Negative Staphylococcus (GC 4551) (Staphylococcus sp.; broth dilution): 8 mg/L (≈ 5.72 µM); MIC Staphylococcus aureus (ATCC 29213) (Staphylococcus sp.): 8 mg/L (≈ 5.72 µM); MIC Staphylococcus aureus (ATCC 29213) (Staphylococcus sp.; broth dilution): 8 mg/L (≈ 5.72 µM); MIC Staphylococcus aureus (GC 1131) (Staphylococcus sp.): 8 mg/L (≈ 5.72 µM); MIC Staphylococcus aureus (GC 1131) (Staphylococcus sp.; broth dilution): 8 mg/L (≈ 5.72 µM); MIC Staphylococcus aureus (GC 4541) (Staphylococcus sp.): 8 mg/L (≈ 5.72 µM); MIC Staphylococcus aureus (GC 4541) (Staphylococcus sp.; broth dilution): 8 mg/L (≈ 5.72 µM); MIC Staphylococcus aureus (GC 4542) (Staphylococcus sp.): 8 mg/L (≈ 5.72 µM); MIC Staphylococcus aureus (GC 4542) (Staphylococcus sp.; broth dilution): 8 mg/L (≈ 5.72 µM); MIC Staphylococcus aureus (GC 4544) (Staphylococcus sp.): 8 mg/L (≈ 5.72 µM); MIC Staphylococcus aureus (GC 4544) (Staphylococcus sp.; broth dilution): 8 mg/L (≈ 5.72 µM); MIC Staphylococcus aureus (GC 4545) (Staphylococcus sp.): 4 mg/L (≈ 2.86 µM); MIC Staphylococcus aureus (GC 4545) (Staphylococcus sp.; broth dilution): 4 mg/L (≈ 2.86 µM); MIC Staphylococcus aureus-SMITH (GC 4543) (Staphylococcus sp.): 8 mg/L (≈ 5.72 µM); MIC Staphylococcus aureus-SMITH (GC 4543) (Staphylococcus sp.; broth dilution): 8 mg/L (≈ 5.72 µM); MIC Staphylococcus haemolyticus (GC 4546) (Staphylococcus sp.): 4 mg/L (≈ 2.86 µM); MIC Staphylococcus haemolyticus (GC 4546) (Staphylococcus sp.; broth dilution): 4 mg/L (≈ 2.86 µM); MIC Escherichia coli (ATCC 25922) (Escherichia coli [2]): 64 mg/L (≈ 45.8 µM)

— patent US8247211B2, “Glycopeptide antibiotics” (American Cyanamid Company, priority 2001, dated 2012)
